Laboratory results reported in ChEMBL document CHEMBL1201862, “PubChem BioAssay data set” (2004).
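In this assay, cells in 96-well plates receive the compound at five concentrations for 48 hours. Endpoints are linearly interpolated between the surrounding concentrations. Abbreviation: GI50, concentration required for 50% inhibition of growth.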 Activity calls are given as the source filed them. Cut-off read from the data, not from the text of the source: active = GI50 up to about 1.1 µM and inactive = higher.

Legend:
Experiment in all cases: DTP human tumour cell line panel, 48 h
SR = tested on: SR
KM-20L2 = tested on: KM-20L2
HOP-62 = tested on: HOP-62
SW-620 = tested on: SW-620
HOP-18 = tested on: HOP-18
HCT-116 = tested on: HCT-116
EKVX = tested on: EKVX
HCC 2998 = tested on: HCC 2998
CCRF-CEM = tested on: CCRF-CEM
SK-MEL-5 = tested on: SK-MEL-5
SNB-75 = tested on: SNB-75
K562 = tested on: K562
RXF 393 = tested on: RXF 393
A549 = tested on: A549
CAKI-1 = tested on: CAKI-1
LXFL 529 = tested on: LXFL 529
SK-MEL-2 = tested on: SK-MEL-2
NCI-H23 = tested on: NCI-H23
MOLT-4 = tested on: MOLT-4
UO-31 = tested on: UO-31
RPMI-8226 = tested on: RPMI-8226
SF-539 = tested on: SF-539
SF-268 = tested on: SF-268
NCI-H460 = tested on: NCI-H460
LOX IMVI = tested on: LOX IMVI
A498 = tested on: A498
ACHN = tested on: ACHN
HOP-92 = tested on: HOP-92
NCI-H522 = tested on: NCI-H522
COLO 205 = tested on: COLO 205
HT-29 = tested on: HT-29
UACC-257 = tested on: UACC-257
HL-60 = tested on: HL-60
OVCAR-8 = tested on: OVCAR-8
XF498 = tested on: XF498
M14 = tested on: M14
SK-OV-3 = tested on: SK-OV-3
HCT-15 = tested on: HCT-15
NCI-H226 = tested on: NCI-H226
KM12 = tested on: KM12
SF-295 = tested on: SF-295
SNB-78 = tested on: SNB-78
OVCAR-3 = tested on: OVCAR-3
SNB-19 = tested on: SNB-19
Malme-3M = tested on: Malme-3M
DMS-273 = tested on: DMS-273
SN12C = tested on: SN12C
OVCAR-5 = tested on: OVCAR-5
U-251 = tested on: U-251
DLD-1 = tested on: DLD-1
RXF 631 = tested on: RXF 631
786-0 = tested on: 786-0
IGROV-1 = tested on: IGROV-1
SK-MEL-28 = tested on: SK-MEL-28
TK-10 = tested on: TK-10
OVCAR-4 = tested on: OVCAR-4
DMS-114 = tested on: DMS-114
M19-MEL = tested on: M19-MEL
UACC-62 = tested on: UACC-62

With `CC(=O)c1ccc(-c2ccc(C(C)=O)s2)s1` the GI50 (SR) was > 100 µM (inactive), the GI50 (KM-20L2) was > 100 µM (inactive) and the GI50 (HOP-62) was > 100 µM (inactive). The GI50 (SW-620) was > 100 µM (inactive), the GI50 (HOP-18) was > 100 µM (inactive) and the GI50 (HCT-116) was > 100 µM (inactive). For the same compound, the GI50 (EKVX) was > 100 µM (inactive), the GI50 (HCC 2998) was > 100 µM (inactive) and the GI50 (CCRF-CEM) was > 100 µM (inactive). The GI50 (SK-MEL-5) was > 100 µM (inactive), the GI50 (SNB-75) was > 100 µM (inactive) and the GI50 (K562) was > 100 µM (inactive). The GI50 (RXF 393) was > 100 µM (inactive), the GI50 (A549) was > 100 µM (inactive) and the GI50 (CAKI-1) was > 100 µM (inactive). The GI50 (LXFL 529) was > 100 µM (inactive), the GI50 (SK-MEL-2) was > 100 µM (inactive) and the GI50 (NCI-H23) was > 100 µM (inactive). The GI50 (MOLT-4) was > 100 µM (inactive), the GI50 (UO-31) was > 100 µM (inactive) and the GI50 (RPMI-8226) was > 100 µM (inactive). The GI50 (SF-539) was > 100 µM (inactive), the GI50 (SF-268) was 1.87 µM (inactive) and the GI50 (NCI-H460) was > 100 µM (inactive). For the same compound, the GI50 (LOX IMVI) was > 100 µM (inactive), the GI50 (A498) was 1.94 µM (inactive) and the GI50 (ACHN) was > 100 µM (inactive). For the same compound, the GI50 (HOP-92) was > 100 µM (inactive), the GI50 (NCI-H522) was > 100 µM (inactive) and the GI50 (COLO 205) was > 100 µM (inactive). The GI50 (HT-29) was > 100 µM (inactive), the GI50 (UACC-257) was > 100 µM (inactive) and the GI50 (HL-60) was > 100 µM (inactive). The GI50 (OVCAR-8) was > 100 µM (inactive), the GI50 (XF498) was > 100 µM (inactive) and the GI50 (M14) was > 100 µM (inactive). For the same compound, the GI50 (SK-OV-3) was > 100 µM (inactive), the GI50 (HCT-15) was > 100 µM and the GI50 (NCI-H226) was 19 µM (inactive). The GI50 (KM12) was > 100 µM (inactive), the GI50 (SF-295) was > 100 µM (inactive) and the GI50 (SNB-78) was > 100 µM (inactive). For the same compound, the GI50 (OVCAR-3) was > 100 µM (inactive), the GI50 (SNB-19) was > 100 µM (inactive) and the GI50 (Malme-3M) was > 100 µM (inactive). For the same compound, the GI50 (DMS-273) was > 100 µM (inactive), the GI50 (SN12C) was > 100 µM (inactive) and the GI50 (OVCAR-5) was > 100 µM (inactive). The GI50 (U-251) was > 100 µM (inactive), the GI50 (DLD-1) was > 100 µM (inactive) and the GI50 (RXF 631) was > 100 µM (inactive). The GI50 (786-0) was > 100 µM (inactive), the GI50 (IGROV-1) was > 100 µM (inactive) and the GI50 (SK-MEL-28) was 1.81 µM (inactive). The GI50 (TK-10) was > 100 µM (inactive), the GI50 (OVCAR-4) was > 100 µM (inactive) and the GI50 (DMS-114) was 1.43 µM (inactive). The GI50 (M19-MEL) was > 100 µM (inactive) and the GI50 (UACC-62) was > 100 µM (inactive).
